Data from patent publication US20050059588A1, “Peptides which generate antibodies resulting in lysis of pathologically adherent erythrocytes” (REGENTS OF THE UNIVERSITY OF CALIFORNIA, priority 2003, published 2005).

How the values were obtained:
CD36 [1] = assay: Cytoadherence assay: binding of infected erythrocytes made from AE1-modified erythrocytes to immobilized CD36; type: cell-based, human; details: for binding of treated IEs to CD36, in words: immobilized CD36; for percentage of bound IEs/mm^2 as compared to untreated cells, CD36: uninfected erythrocytes treated (0.5 mg/ml chymotrypsin, 100 μM DIDS or 0.25 mg/ml FMA), then infected, harvested after 40 hr, mean ±SD of triplicate
Method: (§1) Uninfected erythrocytes were treated with either 0.25 mg/ml fluorescein maleimide (FMA) (1 hr at 25° C.), 100 μM DIDS (1 hr at 37° C.) or with 0.5 mg/ml chymotrypsin (0.5 hr at 37° C.). Modified erythrocytes were infected and after 40 hr, mature stages were harvested and a standard cytoadherence assay using CD36 or TSP immobilized on slides was carried out. The numbers are the percentage of bound IEs/mm^2 as compared to untreated cells. Each value represents the mean ±SD of triplicate determinations.
(§2) Partially purified CD36 (CD36 fraction) was obtained from human platelets essentially by the method of Tandon et al., J. Biol Chem, 264:7570 (1989). However, the last purification step, using Ultrogel AcA-44, was omitted. TSP was purified as described in Layler et al., J Biol Chem, 253:8609 (1978). To remove excess amount of Triton X-100 in CD36 solution, 5 ml of a CD36 solution containing 0.1% Triton X-100 (initial concentration 268 μg protein/ml) was incubated with 0.5 g of SM-2 beads (Bio-Rad, Hercules, Calif.) at room temperature for 2 h and dialyzed against 500 ml of distilled water. Five microliters of the dialyzed solution was mounted onto multi-well glass slides, and incubated at 4° C. overnight. To immobilize TSP, 5 μl of TSP solution (50 μg/ml in 50 mM Bis-Tris, 100 mM NaCl, 25 mM calcium lactate, pH 7.4 (BTC)) was spotted on plastic slides (Permanox® plastic, Nunc, Neperville, Ill.) and incubated at 4° C. overnight. After removal of the solution by gentle aspiration, CD36- and TSP-immobilized spots were blocked with 1% BSA in phosphate buffered saline (PBS) at room temperature for 1 h.
(§3) Cytoadherence assays were performed as described in Crandall et al., Exp Parasitol, 73:362 (1991) (“Crandall 1991”). In the case of inhibition assay using peptides, the spots of immobilized protein were pretreated with 10 μl of peptide solution (200 μg/ml) in Bis-Tris buffer (50 mM Bis-Tris, 100 mM NaCl, 2 mM CaCl2, pH 6.6 for CD36; 50 mM Bis-Tris, 100 mM NaCl, 2 mM CaCl2, pH 7.4 for 677 cells; BTC for TSP) at 37° C. for 1 h. After removal of the peptide solution, the slides were placed in individual compartments of a partitioned plastic box containing 7 ml Bis-Tris buffer. Fifty microliters of packed red cells (5-10% parasitemia) was added to each compartment of the plastic box. After incubation at 37° C. for 90 min with gentle rocking, the red cell suspension was carefully aspirated. The slides were rinsed by adding 7 ml of the buffer and 5 min of rocking after which time the buffer was aspirated. The slides were washed three times, fixed, and stained as described in Crandall 1991. The number of bound infected red cells/mm^2 area of immobilized protein was counted by light microscopy.

TSP = assay: Cytoadherence assay: binding of infected erythrocytes made from AE1-modified erythrocytes to immobilized TSP; type: cell-based; details: for binding of treated IEs to TSP, in words: immobilized TSP; for percentage of bound IEs/mm^2 as compared to untreated cells, TSP: uninfected erythrocytes treated (0.5 mg/ml chymotrypsin, 100 μM DIDS or 0.25 mg/ml FMA), then infected, harvested after 40 hr, mean ±SD of triplicate
Method: as §1, §2, §3

[2] = Tolerability in animals immunized with the peptide; type: in vivo, rabbit
[3] = biological target: T1, CD36 transfected CHO cells (Homo sapiens, UniProt P16671); assay: Interaction of biotin labeled DBR peptide with CD36 transfected CHO cells; type: binding; details: 40 μg/ml biotin labeled peptide, 1 hour at 37° C.
T1 construct: expressed in transfected cells; host or cells: CHO cells
Method: FIG. 2. Interaction of DBR peptide with CD36 transfected CHO cells. Cells were incubated for 1 hour at 37° C. with 40 μg/ml biotin labeled peptide, followed by 20 μg/ml Alexa-conjugated streptavidin.
To confirm that the DIDS binding region (DBR) of AE1 is involved in IE adhesion, two different kinds of in vitro assays were carried out.

CD36 [4] = biological target: T2, CD36 (Homo sapiens, UniProt P16671); assay: Competitive binding assay: inhibition of IE binding to immobilized CD36 by DBR peptide; type: cell-based; details: immobilized CD36 incubated with peptide before cytoadherence assay
T2 construct: Partially purified CD36 (CD36 fraction) was obtained from human platelets; from tissue; host or cells: human platelets
Method: FIG. 3. […] Immobilized CD36 was incubated with the indicated concentrations of DBR peptide, and then a cytoadherence assay was conducted as shown in the legend of Table 1. Each value represents the mean ±SD of triplicate determinations.
as §2, with “After removal of the solution by gentle aspiration, CD36- and TSP-immobilized spots were blocked with 1% BSA in phosphate buffered saline (PBS) at room temperature for 1 h.” left out
Cytoadherence assays were performed as described in Crandall et al., Exp Parasitol, 73:362 (1991) (“Crandall 1991”). […] The number of bound infected red cells/mm^2 area of immobilized protein was counted by light microscopy.

[5] = tested on: immunoglobulins from individuals living in a malaria endemic region; assay: ELISA: binding of IE-surface-eluted human immunoglobulins to immobilized DBR peptide; details: surface bound immunoglobulins eluted from IEs
Method: FIG. 4. Recognition of the DBR peptide by immunoglobulins from individuals living in a malaria endemic region (“immunes”). Human sera from either control or “immunes” were added to human erythrocytes infected with P. falciparum (“IEs”) and after incubation, the surface bound immunoglobulins were eluted using isotonic glycine buffer pH 3.0. Biotin labeled peptides were immobilized on 96 well plates using streptavidin, and the specific binding of the surface eluted immunoglobulins to the peptides was determined using alkaline phosphatase conjugated anti-human IgG.
To explore whether DBR is exposed as a consequence of parasite development, sera from individuals living in a region where malaria is endemic or from a control group was incubated with intact live IEs and the surface bound immunoglobulins eluted by a low pH treatment.

T2 sequence (P16671 whole entry): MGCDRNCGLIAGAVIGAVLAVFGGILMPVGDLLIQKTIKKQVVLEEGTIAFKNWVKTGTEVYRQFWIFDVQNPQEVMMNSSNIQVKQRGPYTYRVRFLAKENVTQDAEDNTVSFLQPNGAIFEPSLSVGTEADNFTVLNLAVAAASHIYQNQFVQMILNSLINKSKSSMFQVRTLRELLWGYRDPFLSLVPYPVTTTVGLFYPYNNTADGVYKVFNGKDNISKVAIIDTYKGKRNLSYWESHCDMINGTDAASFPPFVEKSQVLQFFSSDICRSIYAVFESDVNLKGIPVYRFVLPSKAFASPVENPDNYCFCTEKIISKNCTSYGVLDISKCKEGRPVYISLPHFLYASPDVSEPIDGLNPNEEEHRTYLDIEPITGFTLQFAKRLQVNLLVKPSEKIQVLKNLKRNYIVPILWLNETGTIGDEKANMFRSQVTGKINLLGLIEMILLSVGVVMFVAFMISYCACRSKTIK
T1 sequence (P16671 whole entry): as above

With Chymotrypsin the “binding of treated IEs to CD36, in words” value (CD36 [1]) was “significant reduction”, the “percentage of bound IEs/mm^2 as compared to untreated cells, CD36” value (CD36 [1]) was 10.2 + 17.5 percentage and the “binding of treated IEs to TSP, in words” value (TSP) was “largely unaffected”. The “percentage of bound IEs/mm^2 as compared to untreated cells, TSP” value (TSP) was 81.0 ± 17.7 percentage.

In the case of `O=S(=O)(O)c1cc(N=C=S)ccc1C=Cc1ccc(N=C=S)cc1S(=O)(=O)O` [DIDS, 4,4′-diisothiocyanatostilbene-2,2′-disulfonic acid], the “binding of treated IEs to CD36, in words” value (CD36 [1]) is reported as “lower binding to CD36”, the “percentage of bound IEs/mm^2 as compared to untreated cells, CD36” value (CD36 [1]) is reported as 33.2 ± 4.1 percentage and the “binding of treated IEs to TSP, in words” value (TSP) is reported as “not to TSP”. For the same compound, the “percentage of bound IEs/mm^2 as compared to untreated cells, TSP” value (TSP) was 93.5 ± 35.9 percentage.

For `O=C1OC2(c3ccc(O)cc3Oc3cc(O)ccc32)c2ccc(N3C(=O)C=CC3=O)cc21` [FMA, Fluorescein maleimide], the “binding of treated IEs to CD36, in words” value (CD36 [1]) was “did not reduce the binding”, the “percentage of bound IEs/mm^2 as compared to untreated cells, CD36” value (CD36 [1]) was 135.1 ± 12.9 percentage and the “binding of treated IEs to TSP, in words” value (TSP) was “did not reduce the binding”. For the same compound, the “percentage of bound IEs/mm^2 as compared to untreated cells, TSP” value (TSP) was 180.9 ± 26.0 percentage.

In the case of YETFSKLIKIFQDH [DBR peptide], the “anemia or other ill effects in immunized animals” value [2] is reported as “no anemia or other ill effects”, the “interaction with CD36 transfected CHO cells” value [3] is reported as “interacted with high affinity and specificity” and the “inhibition of IE binding to immobilized CD36” value (CD36 [4]) is reported as “Concentration dependent inhibition”. The “inhibition of IE binding to immobilized CD36” value (CD36 [4]; listed as DBR peptides) was “inhibited the binding” and the “recognition of the DBR by immunoglobulins of individuals living in an endemic area” value [5] was “strong humoral immune response”.
